ChEMBL document CHEMBL1150545, “CP-71,362, an unusually potent inhibitor of rat and dog renin” (Bioorg Med Chem Lett, 1994)
*1 amine or outer side, *2 acyl side, *3 side chain or, on linkers, in order; H or OH if unused. Where a SMILES comes first, the peptide text is derived from it. [ ]: non-standard residue; d: D form. The star is where a group is joined. X1 = CC(C)C[C@H](C[C@H](O)[C@H](CC1CCCCC1)N[*:1])C(=O)[*:2]; Boc = CC(C)(C)OC(=O)*

Experiments:
Canis familiaris [1] = assay: Decrease in mean arterial pressure in anesthetized, sodium depleted dogs, at 3.7+/0.4 ug/Kg/min infusion rate; assay type: functional, Canis lupus familiaris, Artery
Rattus norvegicus [2] = organism: Rattus norvegicus; assay: Infusion rate producing a decrease in MAP of between 30 and 40 mmHg in the rat; assay type: functional
Rattus norvegicus [3] = organism: Rattus norvegicus; assay: Infusion rate producing half of the maximal decrease in renin dependent blood pressure in rats; assay type: functional
Renin [4] = target: T1, Renin (Homo sapiens, UniProt P00797); assay: Compound was tested for its inhibitory activity against human plasma renin; assay type: cell-free
T1 sequence (P00797 whole entry): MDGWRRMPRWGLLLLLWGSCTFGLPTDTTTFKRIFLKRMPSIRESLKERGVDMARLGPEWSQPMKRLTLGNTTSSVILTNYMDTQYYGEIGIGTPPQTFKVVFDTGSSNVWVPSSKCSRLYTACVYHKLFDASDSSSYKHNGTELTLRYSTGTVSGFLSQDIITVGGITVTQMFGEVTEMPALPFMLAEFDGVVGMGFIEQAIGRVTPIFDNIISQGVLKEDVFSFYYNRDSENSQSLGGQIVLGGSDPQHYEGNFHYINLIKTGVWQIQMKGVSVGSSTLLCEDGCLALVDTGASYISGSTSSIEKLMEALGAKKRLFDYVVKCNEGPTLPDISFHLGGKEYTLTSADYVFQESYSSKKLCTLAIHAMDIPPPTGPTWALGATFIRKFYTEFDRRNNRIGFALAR

Canis familiaris [5] = organism: Canis familiaris; assay: Infusion rate producing half of the maximal decrease in renin dependent blood pressure in dogs; assay type: functional, Canis lupus familiaris
Renin (Canis familiaris) = assay: Compound was tested for its inhibitory activity against dog plasma renin
Renin [6] = target: T2, Renin (Rattus norvegicus, UniProt P08424); assay: Compound was tested for its inhibitory activity against Rat plasma renin; assay type: cell-free
T2 sequence (P08424 whole entry): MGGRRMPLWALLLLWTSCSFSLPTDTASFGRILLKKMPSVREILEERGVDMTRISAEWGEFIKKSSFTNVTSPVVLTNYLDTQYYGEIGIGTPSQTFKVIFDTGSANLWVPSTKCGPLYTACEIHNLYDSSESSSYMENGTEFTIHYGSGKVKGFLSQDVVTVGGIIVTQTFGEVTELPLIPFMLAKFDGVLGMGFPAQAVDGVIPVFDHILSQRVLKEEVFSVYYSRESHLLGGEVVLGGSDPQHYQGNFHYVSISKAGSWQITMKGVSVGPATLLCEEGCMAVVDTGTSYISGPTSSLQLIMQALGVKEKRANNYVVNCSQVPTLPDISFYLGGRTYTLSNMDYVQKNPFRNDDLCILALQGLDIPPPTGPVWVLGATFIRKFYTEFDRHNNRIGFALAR

IC50 (Renin [4]): 20 nM
IC50 (Renin (Canis familiaris)): 0.03 nM
IC50 (Renin [6]): 3 nM
SMILES: CC(=O)O.CC(C)C[C@H](C[C@H](O)[C@H](CC1CCCCC1)NC(=O)[C@H](Cc1c[nH]cn1)NC(=O)[C@H](Cc1ccccc1)NC(=O)OC(C)(C)C)C(=O)N[C@@H](CCCCN)C(=O)N[C@@H](Cc1ccccc1)C(=O)O (Boc-FH[X1]KF-OH)
MAP (Canis familiaris [1]): 35 mmHg
Infusion rate (Rattus norvegicus [2]): 30 µg/min/kg
Infusion rate (Rattus norvegicus [3]): 9.7 µg/min/kg
Infusion rate (Canis familiaris [5]): 1.1 µg/min/kg
